The values below come from patent US20120021967A1, “SYNTHETIC ANTIBODIES” (Arizona Board of Regents, A Body Corporate of the State Of …, priority 2008, published 2012).

Where a SMILES comes first, the peptide text is derived from it. Where no end group is shown, it is not given here. Some results are limits rather than exact numbers.

In one data set the target is T1, human α-thrombin (Homo sapiens, UniProt P00734).
T1 construct: human α-thrombin
Description: ELISA-type assay on thrombin-coated wells. In kind it is binding. Particulars: read-out: Dissociation constant estimated from ELISA-type assay. The protocol: Binding to thrombin was evaluated in an ELISA-type assay. Wells of a 96 well plate were coated with 100 μL of 30 μg/mL human α-thrombin and incubated at 4C overnight. The plate was washed twice with DDI H2O and passivated with 3% BSA in 1×PBS buffer for 1 hour. The plate was shaken out and 50 μL of varying concentrations of analyte (DNA tile synbody, DNA tile with each aptamer with the other not present, and each aptamer alone, respectively) were incubated at RT for 1 hour. DNA tiles were biotin-modified at the 5′ end of one of the distal DNA strands 346 (see FIG. 26(a)). The plate was rinsed 10 times in 1×PBS and 50 μL of 1:1000 dilution of streptavidin-HRP in 0.1% BSA in 1×PBS was pipetted and incubated for 1 hour at RT. The plate was again rinsed and 50 μL of TMB was added and incubated at RT for 15 minutes. 50 μL of 0.5M HCl was added and the plate was read immediately. Results are shown in FIG. 27 for the DNA tile synbody 350; the DNA tile with Apt1 but not Apt2 present 352; the DNA tile with Apt2 but not Apt1 present 356; Apt1 alone 354; and Apt2 alone 358. Dissociation constant values estimated from this assay were about 1 nM for the DNA tile synbody, about 10 nM for Apt1 alone, and more than 1 μM for Apt2 alone.

Data set [1] has as its target T2, transferrin (Homo sapiens, UniProt P02787). Description: SPR (Biacore T100) steady state affinity of mRNA display clones on immobilized transferrin. As to conditions: for Kd: steady state affinity model, 32 to 0.0625 μM. The format is binding. The method, then: Five clones (see Table 15) were selected, synthesized and purified by HPLC for characterization by surface plasmon resonance (SPR) (T100 instrument from Biacore). Transferrin was immobilized using standard NHS/EDC immobilization chemistry according to the methods described in Frostell-Karlsson, A., Remaeus, A., Andersson, K., Borg, P., Hamalainen, M., and Karlsson, R. (2000) J. Med. Chem. 43, resulting in 9758 RU of immobilized protein. HPLC purified peptides were injected over the surface and sensograms were recorded at multiple concentrations (32, 16, 8, 4, 2, 1, 0.5, 0.25, 0.125. and 0.0625 μM). Affinity plots were generated for each peptide and fit using a steady state affinity model.
(In general: SPR reads the build-up and loss of mass on a sensor chip optically.)

Data set [2] addresses T2, transferrin. Description: SPR characterization of TRF26 lead and point-mutant peptides against transferrin. The format is binding. An excerpt: In this example, a small library of ˜300 variant peptides was synthesized in 96-well format. […] The lead peptide (TRF26, see Table 6) was selected as a moderate-affinity binder of the target protein transferrin. The library of variant peptides contained all possible point mutations of the lead peptide using the following set of amino acids {M,A,V,P,L,I,G,W,Y,F,S,T,N,Q,K,R,H,D,E}.
Relative affinities/specificities of the lead peptide and point-mutants were characterized using SPR as follows:
Peptide sample preparation. Lyophilized peptides were individually diluted in 96-well plates to approximately equal concentration (1 mg/ml) in 1×PBST buffer pH 7.4. Peptide sample purity was determined by MALDI-MS analysis of the diluted peptide samples.
SPR gold substrate preparation. Gold substrates used for SPR analysis were first modified with a monolayer of cysteamine by immersing the substrate in a 10 mM cysteamine/EtOH solution for 1 hour, thereby exposing a layer of primary amines just above the gold surface. After addition of the monolayer, the gold substrates were rinsed extensively with EtOH then further modified by immersing in a solution of 2 mM Sulfo-SMCC/PBS pH 7.4 for 1 hour, thereby exposing a surface-bound maleimide which can be used to covalently couple peptides to the gold substrate via the C-terminal cysteine.
Peptide spotting on gold substrate. Diluted peptide samples were spotted on the modified gold substrate using a commercial robotic spotter in an array format. The array contained ˜440 peptide spots (including replicates and blank reference spots), each spot having ˜200 um diameter. Spotted substrates were kept in a humidity chamber overnight to ensure complete reaction between the surface exposed maleimide and the C-terminal cysteine in the peptides. After ˜12-hours, the substrates were washed with PBST buffer to remove excess peptide not bound to the gold substrate. Finally, unreacted maleimide groups were quenched using a 2 mM β-mercaptoethanol/PBST solution thereby presenting a hydrophilic surface in regions not containing peptide.
Determination of target affinity using SPR. Gold substrates containing arrays of peptide variants and the lead peptide were loaded into a FlexChip SPR (Biacore) instrument. To ensure binding specificity, three injections of 0.2% BSA sample were flowed across the array using the FlexChip fluidics. The array was then washed with a continuous 1 mL/min flow of PBST buffer until the sensorgram reached a stable baseline. After reaching a baseline, the array was washed 2 additional minutes using PBST, then a 10 μM Transferrin/PBST sample was injected and continuously recycled over the array surface for 8 minutes. After the recycle the array was washed […] with continuous 1 mL/min PBST flow for 10 minutes. Sensorgrams were continuously recorded during the 2 minute prewash (to ensure baseline stability), 8 minute Transferrin sample recycle and post sample recycle wash.
Quantification of relative target affinities. Sensorgram values were taken from the stability region, that is the region ˜10 seconds into the post sample recycle wash. Sensorgram values at this point should allow identification of peptides that have both high levels of target binding and off-rates slower than the lead peptide. […] Data processing included identification of the mutated position at a particular SPR array spot as well as signal normalization relative to the lead peptide (lead peptide=1), enhanced binders have positive values and reduced binders have negative values.
Two TRF26 point-mutants (P6Y, H12F) were selected for further affinity characterization. The P6Y and H12F point-mutants have dissociation constants of 8.6±1.6 μM and 9.8±1.6 μM respectively. […] A TRF26 double mutant sequence containing the P6Y+H12F mutations was synthesized and characterized.

Data set [3] concerns the target T2, transferrin. Description: SPR analysis of peptide pairs for binding to distinct sites on immobilized transferrin. An excerpt:
The transferrin target was immobilized on a Biacore T100 SPR chip, and candidate polypeptides were applied in 1:1 mixtures in pairs and response data obtained, in accordance with the methods described in Example 4 above. As illustrated in FIGS. 12A-D, upon flowing candidate polypeptides over the immobilized target, ideally one polypeptide applied alone would bind to a first binding site on the target and produce a first characteristic SPR response level (FIG. 12A), the other polypeptide would bind to a second, distinct binding site on the target, producing a second characteristic response level (FIG. 12B), and a mixture of the two polypeptides together (at the same concentrations as before) would produce a response level approximating the sum of the response levels produced by each polypeptide alone, as the polypeptides bind to distinct binding sites (FIG. 12C).

Another data set addresses TNF-α (Homo sapiens, UniProt P01375). As to the kind of experiment: SPR (Biacore A100) of TNF1 lead and mutant peptides on captured TNF-α. In kind it is binding. As to conditions: for koff: kinetic fits of sensorgrams, read-out: off-rate koff. From the text:
Scanning Mutagenesis of the TNF1 Lead Peptide. After lead identification, the next step in the AMPLI algorithm is characterization of point mutations in the lead heteropolymer. Using short peptides makes it chemically feasible to synthesize a significant fraction of the point-mutant space, which can then be screened for enhanced point mutations. For example, all possible point mutations in the 17 randomized positions using all 20 natural amino acids could be synthesized and screened within a single 384-well plate (323 total point-mutants). However, libraries containing all 20 natural amino acids are not required for affinity optimization of protein-protein interactions. A library of TNF1 point-mutants containing all substitutions of the amino acid set {Y, A, D, S, K, N, V, W} in each of the 17 randomized positions (132 unique point-mutants) was synthesized. Tyrosine (Y), alanine (A), aspartic acid (D) and serine (S) were selected because of their effectiveness in producing high affinity interactions when substituted into the complementary-determining regions (CDRs) of synthetic antibodies (Felouse, Proceedings of the National Academy of Sciences 101(34):12467, 2004), lysine (K) was selected to balance the charge in the substitution set, asparagine (N), valine (V) and tryptophan (W) were selected to span the hydropathicity range (Kyte J & Doolittle R F, Journal of Molecular Biology 157(1):105-132, 1982). […] This concentration was used to increase the high-end dynamic range for quantifying enhancing point mutations at the expense of low-end dynamic range for quantifying detrimental point mutations.
Point-mutant libraries were prepared in 96-well stock plates From the stock plate, peptides were diluted to 50 μM concentration in Biacore HBS-EP buffer (GE Healthcare, Piscataway, N.J.) containing 1 mg/ml carboxymethyl-dextran (Sigma-Aldrich, St. Louis, Mo.) to reduce non-specific binding to the CM-5 SPR chip surface. […] Spot 3 contained only immobilized neutravidin and served as a reference spot.
Using the prepared 96-well plates and Biacore A100 SPR instrument, four peptides were flowed separately, in parallel, through the four flow cells over all 4 TNF-α spots and the neutravidin reference spot, with a 60 second association phase and 300 second dissociation phase. SPR sensorgrams were recorded for each peptide response with all 4 TNF-α spots and the neutravidin reference spot across the four flow cells on the SPR chip. […]
Purified point-mutant affinities were measured on the Biacore A100 using SPR equilibrium binding response across a series of peptide concentrations on an SPR chip with TNF-α captured as described above. […]

Setting [4] is: observed, read-out: dissociation constant.
[5] abbreviates: Table 13A, lead and point-mutants.

A word on the koff: it is a measure of how fast the partners let go of each other.

T2 sequence (P02787 20-698): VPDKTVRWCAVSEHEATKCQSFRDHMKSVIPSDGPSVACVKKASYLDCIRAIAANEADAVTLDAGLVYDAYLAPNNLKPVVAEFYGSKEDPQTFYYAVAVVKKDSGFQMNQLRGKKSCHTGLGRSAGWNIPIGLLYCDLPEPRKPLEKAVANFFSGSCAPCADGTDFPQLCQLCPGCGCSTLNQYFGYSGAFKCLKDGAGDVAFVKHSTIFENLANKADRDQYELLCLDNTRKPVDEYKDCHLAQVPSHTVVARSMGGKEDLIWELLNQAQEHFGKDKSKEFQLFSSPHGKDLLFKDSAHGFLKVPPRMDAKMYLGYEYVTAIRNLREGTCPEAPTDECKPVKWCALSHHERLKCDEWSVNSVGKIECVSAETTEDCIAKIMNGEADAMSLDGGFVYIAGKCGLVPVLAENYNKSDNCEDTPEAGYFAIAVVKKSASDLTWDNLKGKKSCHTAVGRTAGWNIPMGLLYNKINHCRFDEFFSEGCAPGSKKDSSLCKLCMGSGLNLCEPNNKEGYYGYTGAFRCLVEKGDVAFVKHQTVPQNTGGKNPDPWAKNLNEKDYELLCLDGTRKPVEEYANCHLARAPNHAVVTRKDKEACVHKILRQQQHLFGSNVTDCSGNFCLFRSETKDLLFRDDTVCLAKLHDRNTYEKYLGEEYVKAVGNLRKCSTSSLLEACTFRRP
TNF-α, sequence (P01375 77-233 limits assumed, species assumed): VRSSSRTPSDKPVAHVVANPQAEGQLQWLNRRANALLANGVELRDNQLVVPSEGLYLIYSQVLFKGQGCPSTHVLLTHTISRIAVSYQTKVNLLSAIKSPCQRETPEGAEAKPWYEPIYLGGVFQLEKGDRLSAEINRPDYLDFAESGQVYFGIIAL

Regarding “5′-AGTCCGTGGTAGGGCAGGTTGGGGTGACT-3 [Apt1 alone]”, the Kd with human α-thrombin is around 0.01 µM.
On to 5′-GGTTGGTGTGGTTGG-3′ [Apt2 alone], for which the Kd with human α-thrombin is above 1 µM.
Turning to `CC(C)C[C@H](NC(=O)[C@H](CCCNC(=N)N)NC(=O)[C@@H]1CCCN1C(=O)[C@@H]1CCCN1C(=O)[C@H](CC(=O)O)NC(=O)[C@@H]1CCCN1C(=O)[C@H](C)NC(=O)[C@@H]1CCCN1C(=O)[C@H](CS)NC(=O)[C@H](Cc1c[nH]c2ccccc12)NC(=O)CNC(=O)[C@@H](NC(=O)[C@@H]1CCCN1)[C@@H](C)O)C(=O)N[C@@H](Cc1c[nH]cn1)C(=O)N1CCC[C@H]1C(=O)N[C@@H](CC(C)C)C(=O)N[C@@H](Cc1c[nH]cn1)C(=O)NCC(=O)N[C@@H](CO)C(=O)N[C@@H](CS)C(=O)O` [TBPM003] (H-PTGWCPAPDPPRLHPLHGSC-OH), the Kd at transferrin [1] is above 300 µM.
Still for that read-out and setting: for `C[C@H](N)C(=O)N[C@H](C(=O)N[C@@H](CCCNC(=N)N)C(=O)N[C@@H](Cc1c[nH]c2ccccc12)C(=O)N[C@@H](CS)C(=O)N1CCC[C@H]1C(=O)N[C@@H](CO)C(=O)N[C@@H](C)C(=O)N[C@@H](CCCNC(=N)N)C(=O)N1CCC[C@H]1C(=O)N[C@@H](C)C(=O)N[C@H](C(=O)N1CCC[C@H]1C(=O)N[C@H](C(=O)N[C@H](C(=O)N[C@@H](C)C(=O)N[C@H](C(=O)NCC(=O)N[C@@H](CO)C(=O)N[C@@H](CS)C(=O)O)[C@@H](C)O)[C@@H](C)O)[C@@H](C)O)[C@@H](C)O)[C@@H](C)O` [TBPM021] (H-ATRWCPSARPATPTTATGSC-OH) the value was above 300 µM.
AHKVVPQRQIRFAYNRYGSC [H12F]: at transferrin [2] (Table 13C), the “Binding ΔG” value is -6.85 ± 0.10 kcal/mol, the “Component Binding ΔG Contribution” value is -1.29 ± 0.14 kcal/mol and the “Kd Fold-Change Relative to Lead” value was found to be 8.8 ± 2.0. The Kd on transferrin [2] (setting [4]) was determined as 9.8 ± 1.6 µM.
Take AHKVVPQRQIRHAYNRYGSC [TRF26]: on transferrin [3], the “binding sites on transferrin (pairs applied in 1:1 mixtures)” value is on record as “bind distinct sites on transferrin”. Besides, the “Binding ΔG” value on transferrin [2] (Table 13C) is -5.56 ± 0.10 kcal/mol. In addition, the Kd on transferrin [2] (Table 13C, read-out: Kd) came to 85 ± 14 µM.
Regarding AHKVVPQRQMRHAYSRYGSC [TBPM023], the “affinity improvement in comparison to the original peptide TRF26” value on transferrin [1] is “more than 10 fold”.
On to AHKVVYQRQIRFAYNRYGSC [P6Y + H12F], for which, at transferrin [2] (Table 13D), the “Observed Binding ΔG” value was -8.68 ± 0.15 kcal/mol and the “Observed Kd Fold-Change Relative to Lead” value amounted to 190 ± 57. The “Predicted Binding ΔG” value at transferrin [2] (Table 13D, energetic additivity) was -8.22 ± 0.18 kcal/mol. In addition, the Kd on transferrin [2] (setting [4]) stood at 0.5 ± 0.1 µM.
AHKVVYQRQIRHAYNRYGSC [P6Y]: on transferrin [2] (Table 13C), the “Binding ΔG” value is -6.93 ± 0.11 kcal/mol, the “Component Binding ΔG Contribution” value was -1.37 ± 0.15 kcal/mol and the “Kd Fold-Change Relative to Lead” value turned out to be 10 ± 2.5. In addition, the Kd on transferrin [2] (setting [4]) turned out to be 8.6 ± 1.6 µM.
Take FERDPLMMPWSFLQSRQGSC [TNF1]: on TNF-α (setting [5]), the “Binding ΔG” value is -5.21 ± 0.07 kcal/mol and the Kd came out at 160 ± 19 µM. In addition, the koff on TNF-α is 1.6 ± 0.5 s⁻¹.
With FERSYLKMPWKFLQSRQGSC [TNF1-opt], the off-rate (koff) on TNF-α was 0.2 ± 0.02 s⁻¹.
